Results on 20 compounds are retold here after PubChem BioAssay (NCI).

Among the test systems are BT-549 breast; HOP-92 NSCLC; MALME-3M melanoma; MCF7 breast; MOLT-4 leukemia; NCI-H522 lung; UO-31 renal; RPMI-8226 leukemia.
Common to all, as to assay: inhibition of tumour cell growth, NCI panel, 48 h

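Following 48 hours of exposure in 96-well plates, responses at five concentrations were used to interpolate endpoints linearly. GI50: concentration for 50% inhibition of growth. Definition used: TGI = concentration required for complete inhibition of growth.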

Regarding `COc1ccc2c(c1)C(=O)/C(=C/c1cccc(OCC(=O)c3ccccc3)c1)O2`, the GI50 in the assay on BT-549 breast is 3.63 µM; with HOP-92 NSCLC, 3.86 µM; with MALME-3M melanoma, 1.95 µM; in the assay with MCF7 breast, 4.2 µM; in the assay with MOLT-4 leukemia, 1.44 µM; with NCI-H522 lung, 1.62 µM. In addition, in the assay on UO-31 renal, the GI50 is 1.59 µM. The TGI in the assay on BT-549 breast came out at 13.1 µM; in the assay on HOP-92 NSCLC, 16.1 µM; in the assay with MALME-3M melanoma it was 4.8 µM; with MCF7 breast it was 33.7 µM; with MOLT-4 leukemia, 3.52 µM; in the assay with NCI-H522 lung, 3.26 µM. In the assay with UO-31 renal, this compound had a TGI of 3.09 µM.

In the case of `C=C(C)C1CC2(C)C(C)CC(O)CC2C(OC(=O)C=C(C)C)C1O` (centres undefined), the TGI is above 100 µM in the assay with BT-549 breast; above 100 µM in the assay on HOP-92 NSCLC; above 100 µM in the assay on MALME-3M melanoma; 86 µM in the assay on MCF7 breast; 83.1 µM with MOLT-4 leukemia; above 100 µM in the assay with NCI-H522 lung. In the assay on UO-31 renal, this compound returned a TGI of 74.4 µM.

`N/N=C\c1c2ccccc2c(=O)n2c1oc1ccccc12`: the GI50 with BT-549 breast was 1.42 µM; in the assay on HOP-92 NSCLC it was 18.9 µM; in the assay on MOLT-4 leukemia, 17.4 µM; in the assay on NCI-H522 lung, 13.6 µM; with RPMI-8226 leukemia, 9.18 µM; with UO-31 renal, 25.8 µM. For the same compound, the TGI in the assay with BT-549 breast amounted to 17 µM; with HOP-92 NSCLC it was 38.7 µM; in the assay with MOLT-4 leukemia, 64.9 µM; in the assay on NCI-H522 lung, 46 µM; with RPMI-8226 leukemia it was 29 µM; with UO-31 renal, 87.7 µM.

Take `COc1ccc2c(c1)C(=O)CCc1cc(OC)c(OC)c(OC)c1-2`: the TGI was above 100 µM in the assay on MCF7 breast, 35.4 µM in the assay on MOLT-4 leukemia, above 100 µM in the assay with RPMI-8226 leukemia and above 100 µM with UO-31 renal. Besides, the GI50 in the assay with MOLT-4 leukemia, with RPMI-8226 leukemia and in the assay with UO-31 renal was below 0.01 µM throughout.

For `CN(C)CCOc1ccc([N+](=O)[O-])c2cccnc12`, the TGI in the assay with BT-549 breast, in the assay on MALME-3M melanoma, with MCF7 breast, in the assay with MOLT-4 leukemia, in the assay with NCI-H522 lung and in the assay with UO-31 renal was above 100 µM in each case.

Turning to `O=NNc1ccc2ccccc2n1`, the TGI in the assay with BT-549 breast, in the assay with MCF7 breast, with MOLT-4 leukemia, with NCI-H522 lung, in the assay with RPMI-8226 leukemia and with UO-31 renal was above 100 µM throughout.

For `CC(C)CNc1nc(-c2ccccc2Cl)nc2ccccc12`, the GI50 in the assay with HOP-92 NSCLC was 15.6 µM; in the assay with MALME-3M melanoma, 12.4 µM; in the assay on MCF7 breast, 22.6 µM; in the assay on MOLT-4 leukemia it was 17.9 µM; in the assay with NCI-H522 lung, 25.5 µM; in the assay with RPMI-8226 leukemia, 12.6 µM. For the same compound, the GI50 in the assay on UO-31 renal is 17.1 µM. For the same compound, the TGI in the assay on HOP-92 NSCLC was 35.2 µM; in the assay on MALME-3M melanoma it was 25.9 µM; in the assay on MCF7 breast, 47.7 µM; with MOLT-4 leukemia, 54.9 µM; in the assay with NCI-H522 lung, above 100 µM; with RPMI-8226 leukemia, 32.7 µM. Moreover, in the assay with UO-31 renal, the TGI is 49.2 µM.

Consider `COCCOC(=O)C1=C(O)c2ccccc2S(=O)(=O)N1C`, for which the TGI in the assay on HOP-92 NSCLC, with MALME-3M melanoma, with MOLT-4 leukemia, in the assay with NCI-H522 lung, in the assay on RPMI-8226 leukemia and in the assay on UO-31 renal was above 100 µM throughout.

`COc1cc(Nc2ncccc2C(=O)Nc2nc3ccc(F)cc3s2)cc(OC)c1OC`: the GI50 in the assay on BT-549 breast is 2.63 µM; in the assay on HOP-92 NSCLC it was 1.48 µM; in the assay on MALME-3M melanoma, 3.27 µM; in the assay on MCF7 breast, 3.23 µM; in the assay with MOLT-4 leukemia, 2.11 µM; in the assay on NCI-H522 lung it was 1.54 µM. Moreover, in the assay with UO-31 renal, the GI50 is 3.37 µM. In addition, the TGI was above 100 µM with BT-549 breast; 5.91 µM in the assay on HOP-92 NSCLC; above 100 µM in the assay on MALME-3M melanoma; above 100 µM with MCF7 breast; 5.85 µM with MOLT-4 leukemia; 5.1 µM with NCI-H522 lung. This compound also returned a TGI with UO-31 renal above 100 µM.

In the case of `CC(=O)OC1OC([C@H]2c3cccc(O)c3C(=O)c3c(O)cc(C)cc32)C(O)C(O)C1O` (some centres undefined), the GI50 is 0.356 µM with BT-549 breast; 0.0623 µM in the assay on HOP-92 NSCLC; 0.287 µM in the assay on MCF7 breast; 1.03 µM in the assay with MOLT-4 leukemia; 0.0479 µM in the assay with NCI-H522 lung; 0.0779 µM with RPMI-8226 leukemia. Also, the GI50 with UO-31 renal was 0.138 µM. Further, the TGI in the assay with BT-549 breast amounted to 1.03 µM; in the assay on HOP-92 NSCLC it was 0.194 µM; with MCF7 breast, 0.803 µM; in the assay with NCI-H522 lung, 19.9 µM; in the assay with RPMI-8226 leukemia, 0.2 µM.

On to `CN(C)Cc1cc(C(F)(F)F)ccc1C(O)(c1ccccc1)c1ccccc1`, for which the TGI with HOP-92 NSCLC turned out to be 27 µM; in the assay with MALME-3M melanoma it was 33.9 µM; in the assay with MCF7 breast, 27.4 µM; in the assay with MOLT-4 leukemia, 38.8 µM; in the assay with NCI-H522 lung it was 35 µM; in the assay with RPMI-8226 leukemia, 21.5 µM. Further, the TGI in the assay on UO-31 renal worked out at 28.5 µM.

For the compound `CCN(CC)CCNC(Cc1ccccc1)c1ccc(OCc2ccccc2)cc1` (centres undefined), the GI50 with BT-549 breast was 3.55 µM; with MCF7 breast it was 3.03 µM; in the assay with MOLT-4 leukemia, 3.43 µM; in the assay with NCI-H522 lung it was 10.2 µM; in the assay on RPMI-8226 leukemia, 2.4 µM; in the assay on UO-31 renal, 2.53 µM. In addition, the TGI with BT-549 breast came out at 18.7 µM; in the assay on MCF7 breast it was 12 µM; with MOLT-4 leukemia it was 13.2 µM; in the assay with NCI-H522 lung, 22.7 µM; in the assay on RPMI-8226 leukemia, 6.84 µM; with UO-31 renal, 14.7 µM.

With `[N-]=[N+]=NCCCn1c2c(c3ccc([N+](=O)[O-])cc3c1=O)C(=O)c1ccccc1-2`, the GI50 in the assay on BT-549 breast is 27.4 µM; in the assay with HOP-92 NSCLC, 45.1 µM; in the assay with MCF7 breast it was 4.19 µM; in the assay with NCI-H522 lung, 70.3 µM; in the assay on RPMI-8226 leukemia, 6.04 µM; in the assay with UO-31 renal it was above 100 µM. Moreover, the TGI in the assay with BT-549 breast, with HOP-92 NSCLC, in the assay with MCF7 breast, in the assay with MOLT-4 leukemia, in the assay with NCI-H522 lung and in the assay on RPMI-8226 leukemia was above 100 µM throughout. In the assay on UO-31 renal, this compound came in with a TGI above 100 µM.

In the case of `Cc1ccc(S(=O)(=O)N=Nc2c(O)[nH]c3cc(O)c(C(=O)O)cc23)cc1`, the TGI with BT-549 breast, with MALME-3M melanoma, in the assay on MCF7 breast, in the assay on MOLT-4 leukemia, with NCI-H522 lung and in the assay on RPMI-8226 leukemia was above 100 µM each time. This compound also returned a TGI in the assay on UO-31 renal above 100 µM.

Turning to `O=C1C=CC(=O)C2C1C1(Cl)C(Cl)=C(Cl)C2(Cl)C1(Cl)Cl` (centres undefined), the GI50 was 1.69 µM in the assay on HOP-92 NSCLC; 3.23 µM in the assay with MALME-3M melanoma; 8.55 µM in the assay on MCF7 breast; 2.54 µM in the assay on MOLT-4 leukemia; 3.73 µM in the assay with NCI-H522 lung; 4.78 µM with RPMI-8226 leukemia. Moreover, in the assay on UO-31 renal, the GI50 is 3.41 µM. The TGI in the assay with HOP-92 NSCLC is 6.88 µM; in the assay on MALME-3M melanoma, 15.8 µM; in the assay with MCF7 breast, 31.1 µM; in the assay with MOLT-4 leukemia, 14.4 µM; with NCI-H522 lung it was 13.1 µM; in the assay with RPMI-8226 leukemia, above 100 µM. Besides, the TGI with UO-31 renal worked out at 16.1 µM.

In the case of `CC(C)(C)c1cc([N+](=O)[O-])cc([N+](=O)[O-])c1O`, the TGI with HOP-92 NSCLC, with MCF7 breast, with MOLT-4 leukemia, in the assay on NCI-H522 lung, in the assay with RPMI-8226 leukemia and in the assay on UO-31 renal was above 10 µM in each case.

Take `CCN1CCCc2cc3c(C(F)(F)F)cc(=O)oc3cc21`: the TGI with BT-549 breast is above 100 µM; with HOP-92 NSCLC, 84 µM; with MCF7 breast it was above 100 µM; in the assay on MOLT-4 leukemia, above 100 µM; in the assay with NCI-H522 lung it was above 100 µM; in the assay with UO-31 renal it was above 100 µM.

Consider `Nc1ncc(-c2cnn(C3CCNCC3)c2)cc1-c1nc2cc(Cl)ccc2o1`, for which the GI50 is 1.61 µM with BT-549 breast; 0.808 µM with HOP-92 NSCLC; 1.71 µM with MALME-3M melanoma; 1.14 µM in the assay on MCF7 breast; 0.484 µM in the assay with UO-31 renal. Further, the TGI in the assay with BT-549 breast was determined as 3.14 µM; in the assay with HOP-92 NSCLC it was 2.14 µM; in the assay with MALME-3M melanoma, 3.37 µM; in the assay with MCF7 breast, 2.68 µM; with UO-31 renal, 1.02 µM.

Consider `CN(C)C/C=C/C(=O)Nc1ccc(C(=O)N[C@@]2(C)CCC[C@@H](Nc3ncc(Cl)c(-c4c[nH]c5ccccc45)n3)C2)nc1`, for which the GI50 in the assay on BT-549 breast is 0.036 µM; with HOP-92 NSCLC, below 0.0109 µM; in the assay with MOLT-4 leukemia, 0.0178 µM; with NCI-H522 lung, 0.0178 µM; with RPMI-8226 leukemia it was below 0.01 µM; with UO-31 renal, 0.0557 µM. Moreover, the TGI in the assay with BT-549 breast was 0.155 µM; in the assay with HOP-92 NSCLC, 0.041 µM; in the assay on MOLT-4 leukemia it was 1.12 µM; with NCI-H522 lung, 0.0664 µM; in the assay with RPMI-8226 leukemia it was 0.0244 µM; in the assay on UO-31 renal, 0.718 µM.

On to `O=C1NC(=S)S/C1=C/c1ccc2c(c1)OCO2`, for which the GI50 in the assay on HOP-92 NSCLC is 17.6 µM; in the assay with MALME-3M melanoma it was 23 µM; with MCF7 breast it was above 100 µM; with MOLT-4 leukemia it was above 100 µM; in the assay with NCI-H522 lung it was above 100 µM; with RPMI-8226 leukemia, above 100 µM. The GI50 in the assay with UO-31 renal was 5.8 µM. Besides, the TGI was 87.7 µM in the assay with HOP-92 NSCLC; above 100 µM in the assay with MALME-3M melanoma; above 100 µM with MCF7 breast; above 100 µM in the assay with MOLT-4 leukemia; above 100 µM with NCI-H522 lung; above 100 µM in the assay with RPMI-8226 leukemia. Also, the TGI in the assay on UO-31 renal is above 100 µM.
